From patent publication EP3436445B1, “HISTONE DEMETHYLASE INHIBITORS” (Celgene Quanticel Research, Inc., priority 2016, dated 2017)
pIC50: −log10 of the molar value.

Target: T1, FBXL10 (Homo sapiens, UniProt Q8NHM5)
T1 construct: purchased BPS Bioscience 50120
T1 sequence (Q8NHM5 1-650): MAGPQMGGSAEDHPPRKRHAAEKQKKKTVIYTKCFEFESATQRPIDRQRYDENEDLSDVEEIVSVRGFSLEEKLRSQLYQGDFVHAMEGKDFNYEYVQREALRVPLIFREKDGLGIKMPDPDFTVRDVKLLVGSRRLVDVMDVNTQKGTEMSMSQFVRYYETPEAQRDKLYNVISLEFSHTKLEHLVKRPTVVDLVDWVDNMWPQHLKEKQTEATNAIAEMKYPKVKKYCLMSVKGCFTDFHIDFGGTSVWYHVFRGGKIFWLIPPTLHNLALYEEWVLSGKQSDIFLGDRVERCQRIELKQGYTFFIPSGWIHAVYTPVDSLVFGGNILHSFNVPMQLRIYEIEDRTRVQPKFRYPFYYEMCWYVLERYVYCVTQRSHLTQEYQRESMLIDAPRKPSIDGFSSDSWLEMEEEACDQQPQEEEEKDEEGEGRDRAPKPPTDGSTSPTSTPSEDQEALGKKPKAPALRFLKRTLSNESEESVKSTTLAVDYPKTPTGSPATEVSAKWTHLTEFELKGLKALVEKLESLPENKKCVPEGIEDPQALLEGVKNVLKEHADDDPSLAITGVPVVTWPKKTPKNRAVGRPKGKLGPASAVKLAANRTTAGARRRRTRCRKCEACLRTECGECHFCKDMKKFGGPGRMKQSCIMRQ
Assay: FBXL10 in vitro enzyme inhibition assay (AlphaScreen)
Assay type: biochemical
Conditions: Table 5
How it was run: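 Reactions ran 1 h at room temperature with 0.3 nM FBXL10 (aa 1-650, baculovirus). Substrates were 30 nM biotin-H3K36me2 peptide and 0.2 µM α-ketoglutarate in pH 7.3 HEPES buffer containing Fe(II) and ascorbate.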

Row | SMILES | pIC50
1 | FC(F)(F)c1[nH]nnc1-c1ccnc(-c2cn(Cc3ccc(Cl)cc3)cn2)c1 [Example 63, 2-{1-[(4-chlorophenyl)methyl]-1H-imidazol-4-yl}-4-[5-(trifluoromethyl)-1H-1,2,3-triazol-4-yl]pyridine] | ≥ 7.00
2 | Fc1cccc(Cl)c1CCn1cnc(-c2cc(-c3nn[nH]c3C(F)(F)F)ccn2)c1 [Example 80, 2-{1-[2-(2-chloro-6-fluorophenyl)ethyl]-1H-imidazol-4-yl}-4-[5-(trifluoromethyl)-1H-1,2,3-triazol-4-yl]pyridine] | 6.00 to 7.00
3 | COc1ccc2c(c1)CCCC2Cn1cnc(-c2cc(-c3nn[nH]c3C(F)(F)F)ccn2)c1 (stereo not shown) [Example 105, 2-{1-[(6-methoxy-1,2,3,4-tetrahydronaphthalen-1-yl)methyl]-1H-imidazol-4-yl}-4-[5-(trifluoromethyl)-1H-1,2,3-triazol-4-yl]pyridine] | 6.00 to 7.00
4 | Fc1cccc(CCn2cnc(-c3cc(-c4nn[nH]c4C(F)(F)F)ccn3)c2)c1 [Example 78, 2-{1-[2-(3-fluorophenyl)ethyl]-1H-imidazol-4-yl}-4-[5-(trifluoromethyl)-1H-1,2,3-triazol-4-yl]pyridine] | ≥ 7.00
